{"source": "paper PMC12507022", "about": "“Widespread distribution of BpfA-mediated bisphenol F degradation among members of the Pseudomonadota and Actinomycetota” (The ISME Journal, 2025)", "key": {"BpfA": {"system": "T1, BpfA", "T1 construct": "recombinant from pET29a(+) (NdeI/XhoI) in E. coli BL21(DE3), Ni-NTA purified; contains flavin", "assay": "HPLC, Michaelis-Menten fit", "assay_type": "biochemical, Microbacterium sp. F2", "conditions": "20 mM Tris-HCl pH 8.0, 30 °C, O2 as electron acceptor"}, "FBO": {"system": "T2, FBO", "T2 construct": "synthetic gene, expressed and purified like BpfA (E. coli, Ni-NTA)", "assay": "HPLC, Michaelis-Menten fit", "assay_type": "biochemical, Sphingobium sp. W15", "conditions": "20 mM Tris-HCl pH 8.0, 30 °C, 0.2 mM FAD added"}}}
{"smiles": "COCc1ccc(O)cc1", "note": "[4MOP]", "values": [{"measurement": "Km", "setting": "BpfA", "result": "297 ± 5", "unit": "µM"}]}
{"smiles": "CCCc1ccc(O)c(OC)c1", "note": "[4PG]", "values": [{"measurement": "Km", "setting": "FBO", "result": "170 ± 5.9", "unit": "µM"}, {"measurement": "Km", "setting": "BpfA", "result": "25.4 ± 2.9", "unit": "µM"}]}
{"smiles": "Oc1ccc(Cc2ccc(O)cc2)cc1", "note": "[BPF]", "values": [{"measurement": "Km", "setting": "FBO", "result": "167 ± 12.8", "unit": "µM"}, {"measurement": "Km", "setting": "BpfA", "result": "12.4 ± 1.9", "unit": "µM"}]}
{"smiles": "COc1cc(CO)ccc1O", "note": "[VA]", "values": [{"measurement": "Km", "setting": "FBO", "result": "183 ± 9.3", "unit": "µM"}, {"measurement": "Km", "setting": "BpfA", "result": "266 ± 10.3", "unit": "µM"}]}
